Measurements taken from patent publication US20260070945A1, “MACROCYCLIC IMMUNOMODULATORS” (Bristol-Myers Squibb Company, priority 2022, published 2026).
Where a SMILES comes first, the peptide text is derived from it. Bridges are numbered along the chain shown (N, C = ends). [ ]: non-standard residue; d: D form. The star is where a group is joined. ξ: configuration not given here. Phe(4-COOH) = N[C@@H](Cc1ccc(C(=O)O)cc1)C(=O)O; Bip = N[C@@H](Cc1ccc(-c2ccccc2)cc1)C(=O)O; hArg = N=C(N)NCCCC[C@H](N)C(=O)O; hhGln = NC(=O)CCCC[C@H](N)C(=O)O; 4Pal = N[C@@H](Cc1ccncc1)C(=O)O; Cha = N[C@@H](CC1CCCCC1)C(=O)O; Cit = NC(=O)NCCC[C@H](N)C(=O)O; Ile(3ξ) = CCC(C)[C@H](N)C(=O)O; Carboxymethyl = O=C(O)C*; NMeA = CN[C@@H](C)C(=O)O; Orn = NCCC[C@H](N)C(=O)O; Aun = NCCCCCCCCCCC(=O)O; Dab = NCC[C@H](N)C(=O)O; Nva = CCC[C@H](N)C(=O)O; Dap = NC[C@H](N)C(=O)O; AEEA = NCCOCCOCC(=O)O

biological target: T1, PD-1/PD-L1 interaction (PE-labeled human PD-L1-Ig binding to Jurkat cell line over-expressing human PD-1) (Homo sapiens, UniProt Q15116); experiment: Jurkat-PD-1 Cell Binding High-Content Screening Assay (CBA); conditions: Jurkat-hPD-1 cells, PE-labeled PD-L1-Ig 20 nM final; read-out: Jurkat HPD1 PDL1 IC50
T1 construct: expressed in transfected cells; host or cells: Jurkat
T1 sequence (Q15116 25-288): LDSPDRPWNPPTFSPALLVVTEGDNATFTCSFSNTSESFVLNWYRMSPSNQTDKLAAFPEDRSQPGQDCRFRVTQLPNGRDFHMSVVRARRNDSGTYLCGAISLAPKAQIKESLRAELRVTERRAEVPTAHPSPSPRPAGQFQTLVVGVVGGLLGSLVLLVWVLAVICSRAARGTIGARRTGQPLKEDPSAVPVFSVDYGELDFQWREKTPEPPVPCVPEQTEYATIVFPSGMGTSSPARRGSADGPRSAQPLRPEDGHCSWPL
Method in brief: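 In this imaging assay, cells in 10% FCS medium see compound for 2 h at 37 °C and then labeled ligand at 20 nM final for 1 h. Paraformaldehyde fixation, Hoechst 33342 staining and dPBS washes precede image capture.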

| IC50 | SMILES |
| --- | --- |
| 25.9 nM | CC(C)C[C@@H]1NC(=O)[C@H](Cc2c[nH]c3ccccc23)NC(=O)[C@H](CC(=O)O)NC(=O)[C@H](Cc2ccc(OCC(=O)O)cc2)NC(=O)[C@H](CCCCNC(=N)N)NC(=O)CSC[C@@H](C(=O)N[C@@H](CCCN)C(=O)NCCOCCOCC(=O)NCCCCCCCCCCC(=O)O)NC(=O)[C@H](CCCNC(N)=O)NC(=O)[C@H](C(C)C)NC(=O)[C@H](CC2CCCCC2)NC(=O)[C@H](CN)NC(=O)[C@@H](CC(C)C)NC(=O)[C@H](C)N(C)C(=O)[C@H](C(C)C)NC(=O)[C@H](Cc2ccc(-c3ccccc3)cc2)NC1=O [Example 2177] ({CH2CO}-[hArg]Y(Carboxymethyl)DWL[Bip]V[NMeA][dL][Dap][Cha]V[Cit]C[Orn][AEEA][Aun]-OH; thioether N-14) |
| 16.3 nM | CC(C)C[C@@H]1NC(=O)[C@H](Cc2c[nH]c3ccccc23)NC(=O)[C@H](CC(=O)O)NC(=O)[C@H](Cc2ccc(OCC(=O)O)cc2)NC(=O)[C@H](CCCCNC(=N)N)NC(=O)CSC[C@@H](C(=O)NCC(=O)NCCOCCOCC(=O)N[C@@H](CCCN)C(=O)NCCCCCCCCCCC(=O)O)NC(=O)[C@H](CCCNC(N)=O)NC(=O)[C@H](C(C)C)NC(=O)[C@H](CC2CCCCC2)NC(=O)[C@H](CCN)NC(=O)[C@@H](CC(C)C)NC(=O)[C@H](C)N(C)C(=O)[C@H](C(C)C)NC(=O)[C@H](Cc2ccc(-c3ccccc3)cc2)NC1=O [Example 2180] ({CH2CO}-[hArg]Y(Carboxymethyl)DWL[Bip]V[NMeA][dL][Dab][Cha]V[Cit]CG[AEEA][Orn][Aun]-OH; thioether N-14) |
| 21.1 nM | CC(C)C[C@@H]1NC(=O)[C@H](Cc2c[nH]c3ccccc23)NC(=O)[C@H](CC(=O)O)NC(=O)[C@H](Cc2ccc(OCC(=O)O)cc2)NC(=O)[C@H](CCCCNC(=N)N)NC(=O)CSC[C@@H](C(=O)NCC(=O)NCCOCCOCC(=O)N[C@@H](CCCCN)C(=O)NCCCCCCCCCCC(=O)O)NC(=O)[C@H](CCCNC(N)=O)NC(=O)[C@H](C(C)C)NC(=O)[C@H](CC2CCCCC2)NC(=O)[C@H](CCN)NC(=O)[C@@H](CC(C)C)NC(=O)[C@H](C)N(C)C(=O)[C@H](C(C)C)NC(=O)[C@H](Cc2ccc(-c3ccccc3)cc2)NC1=O [Example 2181] ({CH2CO}-[hArg]Y(Carboxymethyl)DWL[Bip]V[NMeA][dL][Dab][Cha]V[Cit]CG[AEEA]K[Aun]-OH; thioether N-14) |
| 19.2 nM | CC(C)C[C@@H]1NC(=O)[C@H](Cc2c[nH]c3ccccc23)NC(=O)[C@H](CC(=O)O)NC(=O)[C@H](Cc2ccc(OCC(=O)O)cc2)NC(=O)[C@H](CCCCNC(=N)N)NC(=O)CSC[C@@H](C(=O)NCCOCCOCC(=O)N[C@@H](CCCNC(N)=O)C(=O)NCCCCCCCCCCC(=O)O)NC(=O)[C@H](CCCNC(N)=O)NC(=O)[C@H](C(C)C)NC(=O)[C@H](CC2CCCCC2)NC(=O)[C@H](CCN)NC(=O)[C@@H](CC(C)C)NC(=O)[C@H](C)N(C)C(=O)[C@H](C(C)C)NC(=O)[C@H](Cc2ccc(-c3ccccc3)cc2)NC1=O [Example 2183] ({CH2CO}-[hArg]Y(Carboxymethyl)DWL[Bip]V[NMeA][dL][Dab][Cha]V[Cit]C[AEEA][Cit][Aun]-OH; thioether N-14) |

Continued, compound first:

| SMILES | IC50 |
| --- | --- |
| CC(C)C[C@@H]1NC(=O)[C@H](Cc2c[nH]c3ccccc23)NC(=O)[C@H](CC(=O)O)NC(=O)[C@H](Cc2ccncc2)NC(=O)[C@H](Cc2ccc(OCC(=O)O)cc2)NC(=O)CSC[C@@H](C(=O)NCC(=O)NCCOCCOCC(=O)N[C@@H](CCCNC(N)=O)C(=O)NCCCCCCCCCCC(=O)O)NC(=O)[C@H](CCCNC(N)=O)NC(=O)[C@H](C(C)C)NC(=O)[C@H](CC2CCCCC2)NC(=O)[C@H](CCN)NC(=O)[C@@H](CC(C)C)NC(=O)[C@H](C)N(C)C(=O)[C@H](C(C)C)NC(=O)[C@H](Cc2ccc(-c3ccccc3)cc2)NC1=O [Example 2173] ({CH2CO}-Y(Carboxymethyl)[4Pal]DWL[Bip]V[NMeA][dL][Dab][Cha]V[Cit]CG[AEEA][Cit][Aun]-OH; thioether N-14) | 15.6 nM |
| CC(C)C[C@@H]1NC(=O)[C@H](Cc2c[nH]c3ccccc23)NC(=O)[C@H](CC(=O)O)NC(=O)[C@H](Cc2ccncc2)NC(=O)[C@H](Cc2ccc(OCC(=O)O)cc2)NC(=O)CSC[C@@H](C(=O)NCCOCCOCC(=O)N[C@@H](CCCNC(N)=O)C(=O)NCCCCCCCCCCC(=O)O)NC(=O)[C@H](CCCNC(N)=O)NC(=O)[C@H](C(C)C)NC(=O)[C@H](CC2CCCCC2)NC(=O)[C@H](CCN)NC(=O)[C@@H](CC(C)C)NC(=O)[C@H](C)N(C)C(=O)[C@H](C(C)C)NC(=O)[C@H](Cc2ccc(-c3ccccc3)cc2)NC1=O [Example 2174] ({CH2CO}-Y(Carboxymethyl)[4Pal]DWL[Bip]V[NMeA][dL][Dab][Cha]V[Cit]C[AEEA][Cit][Aun]-OH; thioether N-14) | 16.4 nM |
| CC(C)C[C@@H]1NC(=O)[C@H](Cc2c[nH]c3ccccc23)NC(=O)[C@H](CC(=O)O)NC(=O)[C@H](Cc2ccc(OCC(=O)O)cc2)NC(=O)[C@H](CCCCNC(=N)N)NC(=O)CSC[C@@H](C(=O)NCC(=O)NCCOCCOCC(=O)N[C@@H](CN)C(=O)NCCCCCCCCCCC(=O)O)NC(=O)[C@H](CCCNC(N)=O)NC(=O)[C@H](C(C)C)NC(=O)[C@H](CC2CCCCC2)NC(=O)[C@H](CCN)NC(=O)[C@@H](CC(C)C)NC(=O)[C@H](C)N(C)C(=O)[C@H](C(C)C)NC(=O)[C@H](Cc2ccc(-c3ccccc3)cc2)NC1=O [Example 2178] ({CH2CO}-[hArg]Y(Carboxymethyl)DWL[Bip]V[NMeA][dL][Dab][Cha]V[Cit]CG[AEEA][Dap][Aun]-OH; thioether N-14) | 8.5 nM |
| CC(C)C[C@@H]1NC(=O)[C@H](Cc2c[nH]c3ccccc23)NC(=O)[C@H](CC(=O)O)NC(=O)[C@H](Cc2ccc(OCC(=O)O)cc2)NC(=O)[C@H](CCCCNC(=N)N)NC(=O)CSC[C@@H](C(=O)NCC(=O)NCCOCCOCC(=O)N[C@@H](CCN)C(=O)NCCCCCCCCCCC(=O)O)NC(=O)[C@H](CCCNC(N)=O)NC(=O)[C@H](C(C)C)NC(=O)[C@H](CC2CCCCC2)NC(=O)[C@H](CCN)NC(=O)[C@@H](CC(C)C)NC(=O)[C@H](C)N(C)C(=O)[C@H](C(C)C)NC(=O)[C@H](Cc2ccc(-c3ccccc3)cc2)NC1=O [Example 2179] ({CH2CO}-[hArg]Y(Carboxymethyl)DWL[Bip]V[NMeA][dL][Dab][Cha]V[Cit]CG[AEEA][Dab][Aun]-OH; thioether N-14) | 11.2 nM |
| CC(C)C[C@@H]1NC(=O)[C@H](Cc2c[nH]c3ccccc23)NC(=O)[C@H](CC(=O)O)NC(=O)[C@H](Cc2ccc(OCC(=O)O)cc2)NC(=O)[C@H](CCCCNC(=N)N)NC(=O)CSC[C@@H](C(=O)NCC(=O)NCCOCCOCC(=O)N[C@@H](CCCNC(N)=O)C(=O)NCCCCCCCCCCC(=O)O)NC(=O)[C@H](CCCNC(N)=O)NC(=O)[C@H](C(C)C)NC(=O)[C@H](CC2CCCCC2)NC(=O)[C@H](CCN)NC(=O)[C@@H](CC(C)C)NC(=O)[C@H](C)N(C)C(=O)[C@H](C(C)C)NC(=O)[C@H](Cc2ccc(-c3ccccc3)cc2)NC1=O [Example 2182] ({CH2CO}-[hArg]Y(Carboxymethyl)DWL[Bip]V[NMeA][dL][Dab][Cha]V[Cit]CG[AEEA][Cit][Aun]-OH; thioether N-14) | 12.3 nM |
| CCC(C)[C@@H]1NC(=O)[C@H](Cc2ccc(-c3ccccc3)cc2)NC(=O)[C@H](CC(C)C)NC(=O)[C@H](Cc2c[nH]c3ccccc23)NC(=O)[C@H](CC(=O)O)NC(=O)[C@H](Cc2ccc(OCC(=O)O)cc2)NC(=O)[C@H](CCCCNC(=N)N)NC(=O)CSC[C@@H](C(=O)NCCOCCOCC(=O)N[C@@H](CCN)C(=O)NCCCCCCCCCCC(=O)O)NC(=O)[C@H](CCCCN)NC(=O)[C@H](C(C)C)NC(=O)[C@H](CC2CCCCC2)NC(=O)[C@H](CCN)NC(=O)[C@@H](CC(C)C)NC(=O)[C@H](C)N(C)C1=O (stereo partly drawn) [Example 2184] ({CH2CO}-[hArg]Y(Carboxymethyl)DWL[Bip][Ile(3ξ)][NMeA][dL][Dab][Cha]VKC[AEEA][Dab][Aun]-OH; thioether N-14) | 30.2 nM |
| CCC(C)[C@@H]1NC(=O)[C@H](Cc2ccc(-c3ccccc3)cc2)NC(=O)[C@H](CC(C)C)NC(=O)[C@H](Cc2c[nH]c3ccccc23)NC(=O)[C@H](CC(=O)O)NC(=O)[C@H](Cc2ccc(OCC(=O)O)cc2)NC(=O)[C@H](CCCCNC(=N)N)NC(=O)CSC[C@@H](C(=O)NCCOCCOCC(=O)N[C@@H](CCN)C(=O)NCCCCCCCCCCC(=O)O)NC(=O)[C@H](CCCCN)NC(=O)[C@H](C(C)C)NC(=O)[C@H](CC2CCCCC2)NC(=O)[C@H](CCN)NC(=O)[C@@H](C)NC(=O)[C@H](C)N(C)C1=O (stereo partly shown) [Example 2185] ({CH2CO}-[hArg]Y(Carboxymethyl)DWL[Bip][Ile(3ξ)][NMeA][dA][Dab][Cha]VKC[AEEA][Dab][Aun]-OH; thioether N-14) | 40.2 nM |
| CC[C@H](C)[C@@H]1NC(=O)[C@H](Cc2ccc(-c3ccccc3)cc2)NC(=O)[C@H](CC(C)C)NC(=O)[C@H](Cc2c[nH]c3ccccc23)NC(=O)[C@H](CC(=O)O)NC(=O)[C@H](Cc2ccc(OCC(=O)O)cc2)NC(=O)[C@H](CCCCNC(=N)N)NC(=O)CSC[C@@H](C(=O)NCCOCCOCC(=O)N[C@@H](CCN)C(=O)NCCCCCCCCCCC(=O)O)NC(=O)[C@H](CCCCN)NC(=O)[C@H](C(C)C)NC(=O)[C@H](CC2CCCCC2)NC(=O)[C@H](CCN)NC(=O)[C@H]2CCCN2C(=O)[C@H](C)N(C)C1=O [Example 2186] ({CH2CO}-[hArg]Y(Carboxymethyl)DWL[Bip]I[NMeA][dP][Dab][Cha]VKC[AEEA][Dab][Aun]-OH; thioether N-14) | 158 nM |
| CCC[C@@H]1NC(=O)[C@@H](CC(C)C)NC(=O)[C@H](C)N(C)C(=O)[C@H](C(C)C)NC(=O)[C@H](Cc2ccc(-c3ccccc3)cc2)NC(=O)[C@H](CC(C)C)NC(=O)[C@H](Cc2c[nH]c3ccccc23)NC(=O)[C@H](CC(=O)O)NC(=O)[C@H](Cc2ccc(C(=O)O)cc2)NC(=O)[C@H](Cc2ccc(OCC(=O)O)cc2)NC(=O)CSC[C@@H](C(=O)NCCOCCOCC(=O)NCCCCCCCCCCC(=O)O)NC(=O)[C@H](CCCCC(N)=O)NC(=O)[C@H](C(C)C)NC(=O)[C@H](CC2CCCCC2)NC1=O [Example 2187] ({CH2CO}-Y(Carboxymethyl)[Phe(4-COOH)]DWL[Bip]V[NMeA][dL][Nva][Cha]V[hhGln]C[AEEA][Aun]-OH; thioether N-14) | 6.2 nM |
